Experimental data reported in ChEMBL document CHEMBL1201862, “PubChem BioAssay data set” (2004).
Active and inactive are the calls of the source.

How the values were obtained:
Protein RecA = molecular target: T1, Protein RecA (Mycobacterium tuberculosis, UniProt P9WHJ3); assay: Fluorescence Cell-Free Homogeneous Dose Retest to Identify Inhibitors of RecA-Intein Splicing Activity. [Related pubchem assays (depositor defined):AID2097, AID2223, AID489010, AID492950]; type: functional
T1 sequence (P9WHJ3 whole entry): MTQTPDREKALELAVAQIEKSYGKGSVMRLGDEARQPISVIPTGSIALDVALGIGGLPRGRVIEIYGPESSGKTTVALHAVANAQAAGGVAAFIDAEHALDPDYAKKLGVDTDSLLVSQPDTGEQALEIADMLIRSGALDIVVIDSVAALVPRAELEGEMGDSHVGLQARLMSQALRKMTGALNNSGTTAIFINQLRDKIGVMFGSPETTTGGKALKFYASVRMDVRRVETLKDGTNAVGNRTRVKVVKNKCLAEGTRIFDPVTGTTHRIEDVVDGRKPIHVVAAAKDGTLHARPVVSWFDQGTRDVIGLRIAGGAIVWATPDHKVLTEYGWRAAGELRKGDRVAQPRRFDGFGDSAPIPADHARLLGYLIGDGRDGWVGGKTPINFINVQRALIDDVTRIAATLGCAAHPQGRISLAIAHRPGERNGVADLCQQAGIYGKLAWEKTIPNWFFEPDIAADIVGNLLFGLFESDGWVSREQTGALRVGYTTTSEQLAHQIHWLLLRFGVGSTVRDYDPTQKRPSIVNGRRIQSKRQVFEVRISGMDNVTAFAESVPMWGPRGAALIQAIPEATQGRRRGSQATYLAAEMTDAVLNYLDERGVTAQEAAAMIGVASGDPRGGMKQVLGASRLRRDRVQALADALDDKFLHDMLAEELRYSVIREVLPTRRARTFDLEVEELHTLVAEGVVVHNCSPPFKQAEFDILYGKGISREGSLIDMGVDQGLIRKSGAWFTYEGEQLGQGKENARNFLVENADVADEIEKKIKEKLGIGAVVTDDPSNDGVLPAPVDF

[1] = molecular target: Disintegrin and metalloproteinase domain-containing protein 17 (Homo sapiens, UniProt P78536); assay: exosite inhibitors of ADAM17, dose response, biochemical (AID 743260)
[2] = molecular target: T2, Replicative DNA helicase DnaB (Mycobacterium tuberculosis, UniProt P9WMR3); assay: DnaB intein splicing inhibitors, dose response, biochemical, cell-free fluorescence (AID 449749); type: functional
T2 sequence (P9WMR3 whole entry): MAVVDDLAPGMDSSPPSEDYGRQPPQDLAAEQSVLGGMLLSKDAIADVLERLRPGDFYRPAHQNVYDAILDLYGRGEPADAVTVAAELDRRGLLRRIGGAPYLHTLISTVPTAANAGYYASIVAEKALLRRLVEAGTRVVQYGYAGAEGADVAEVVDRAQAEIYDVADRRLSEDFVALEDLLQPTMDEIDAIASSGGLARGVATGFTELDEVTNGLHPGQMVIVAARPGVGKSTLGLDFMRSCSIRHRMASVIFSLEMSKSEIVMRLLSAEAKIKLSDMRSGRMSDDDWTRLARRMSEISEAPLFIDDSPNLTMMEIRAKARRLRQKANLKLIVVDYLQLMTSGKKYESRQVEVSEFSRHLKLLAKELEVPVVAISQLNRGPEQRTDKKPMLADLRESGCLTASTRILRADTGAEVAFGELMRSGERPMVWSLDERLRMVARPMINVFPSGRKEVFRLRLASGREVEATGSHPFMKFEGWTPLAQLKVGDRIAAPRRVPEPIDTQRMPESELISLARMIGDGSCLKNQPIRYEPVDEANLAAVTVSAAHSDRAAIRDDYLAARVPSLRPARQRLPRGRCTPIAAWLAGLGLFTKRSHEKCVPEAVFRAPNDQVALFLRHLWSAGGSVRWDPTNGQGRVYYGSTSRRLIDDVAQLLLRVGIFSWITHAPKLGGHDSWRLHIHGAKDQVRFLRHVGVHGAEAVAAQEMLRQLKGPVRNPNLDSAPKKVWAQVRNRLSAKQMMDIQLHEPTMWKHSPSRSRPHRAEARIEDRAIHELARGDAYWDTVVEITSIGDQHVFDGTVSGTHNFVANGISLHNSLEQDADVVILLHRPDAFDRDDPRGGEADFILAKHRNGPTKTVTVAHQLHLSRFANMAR

[3] = Luminescence Cell-Based Dose Retest to Confirm Inhibitors of Cancer Stem Cells. [Related pubchem assays (depositor defined):AID2717, AID2721]; type: functional; details: Homo sapiens
CAAX prenyl protease 2 = molecular target: T3, CAAX prenyl protease 2 (Saccharomyces cerevisiae S288c, UniProt Q03530); type: biochemical
T3 sequence (Q03530 whole entry): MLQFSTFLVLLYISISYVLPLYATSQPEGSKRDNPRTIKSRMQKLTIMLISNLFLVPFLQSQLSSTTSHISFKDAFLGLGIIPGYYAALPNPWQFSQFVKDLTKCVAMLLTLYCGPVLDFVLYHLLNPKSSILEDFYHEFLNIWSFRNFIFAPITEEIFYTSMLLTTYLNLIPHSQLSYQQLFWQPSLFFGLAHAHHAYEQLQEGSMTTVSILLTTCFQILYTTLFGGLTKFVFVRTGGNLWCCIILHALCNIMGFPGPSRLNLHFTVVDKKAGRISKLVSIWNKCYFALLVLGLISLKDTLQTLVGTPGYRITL

[4] = ADAM10 protease inhibitors, dose response, selectivity assay for ADAM17 exosite inhibitor project, biochemical, FRET peptide substrate, recombinant human ADAM10 (AID 743259);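 note: ADAM10 enzyme cleaving a FRET peptide substrate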
Trypsin = Trypsin (Sus scrofa, UniProt P00761); assay: porcine trypsin inhibitors, dose response, selectivity assay for Rce1 protease inhibitor project, biochemical, quenched peptide fluorescence, cherry-pick (AID 488789)
[5] = molecular target: T4, Alkaline phosphatase, tissue-nonspecific isozyme (Homo sapiens, UniProt P05186); assay: human TNAP enzyme inhibitors, SAR follow-up, biochemical, luminescent, dose response (AID 1056)
T4 sequence (P05186 whole entry): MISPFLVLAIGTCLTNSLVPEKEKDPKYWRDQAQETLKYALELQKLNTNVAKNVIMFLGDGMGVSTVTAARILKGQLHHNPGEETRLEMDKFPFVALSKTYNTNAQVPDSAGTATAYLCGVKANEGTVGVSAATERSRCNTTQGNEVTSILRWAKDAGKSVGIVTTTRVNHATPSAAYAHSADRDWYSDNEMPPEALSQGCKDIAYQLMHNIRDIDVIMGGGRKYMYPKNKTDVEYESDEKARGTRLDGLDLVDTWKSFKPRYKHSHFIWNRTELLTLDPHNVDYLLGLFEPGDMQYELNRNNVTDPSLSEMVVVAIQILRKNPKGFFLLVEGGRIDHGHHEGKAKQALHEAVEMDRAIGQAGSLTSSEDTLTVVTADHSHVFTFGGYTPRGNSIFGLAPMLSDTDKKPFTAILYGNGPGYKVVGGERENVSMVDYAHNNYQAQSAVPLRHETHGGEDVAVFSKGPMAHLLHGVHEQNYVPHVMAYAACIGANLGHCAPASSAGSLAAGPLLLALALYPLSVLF

[6] = molecular target: Alkaline phosphatase, placental type (Homo sapiens, UniProt P05187); assay: PLAP enzyme inhibitors, confirmation, biochemical, luminescence (AID 1512); type: functional
[7] = inhibition of K1F phage lysis, E. coli UTI89, bacterial capsule biogenesis inhibitors, alamar blue (AID 488966); type: functional
Vero [8] = assay: cells; type: functional, cell-based; details: Chlorocebus sabaeus
Vero [9] = assay: cells; type: functional; details: Chlorocebus sabaeus
[10] = molecular target: G-protein coupled receptor 55 (Homo sapiens, UniProt Q9Y2T6); assay: GPR55 agonists via beta-arrestin recruitment, primary screen, imaging, U2OS cells, beta-arrestin-GFP redistribution (AID 1961); type: functional
Chain of G-protein coupled receptor 55 (Q9Y2T6 whole entry): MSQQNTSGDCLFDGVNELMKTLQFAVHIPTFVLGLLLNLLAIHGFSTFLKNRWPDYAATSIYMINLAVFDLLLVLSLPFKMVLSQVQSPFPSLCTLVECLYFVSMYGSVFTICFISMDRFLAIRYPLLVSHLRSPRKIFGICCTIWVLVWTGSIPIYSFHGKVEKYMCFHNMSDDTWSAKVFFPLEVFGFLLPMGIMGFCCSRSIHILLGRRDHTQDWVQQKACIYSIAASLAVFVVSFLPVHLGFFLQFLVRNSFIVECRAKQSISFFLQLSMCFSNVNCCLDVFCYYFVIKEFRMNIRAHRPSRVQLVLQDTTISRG

Chain of Alkaline phosphatase, placental type (P05187 whole entry): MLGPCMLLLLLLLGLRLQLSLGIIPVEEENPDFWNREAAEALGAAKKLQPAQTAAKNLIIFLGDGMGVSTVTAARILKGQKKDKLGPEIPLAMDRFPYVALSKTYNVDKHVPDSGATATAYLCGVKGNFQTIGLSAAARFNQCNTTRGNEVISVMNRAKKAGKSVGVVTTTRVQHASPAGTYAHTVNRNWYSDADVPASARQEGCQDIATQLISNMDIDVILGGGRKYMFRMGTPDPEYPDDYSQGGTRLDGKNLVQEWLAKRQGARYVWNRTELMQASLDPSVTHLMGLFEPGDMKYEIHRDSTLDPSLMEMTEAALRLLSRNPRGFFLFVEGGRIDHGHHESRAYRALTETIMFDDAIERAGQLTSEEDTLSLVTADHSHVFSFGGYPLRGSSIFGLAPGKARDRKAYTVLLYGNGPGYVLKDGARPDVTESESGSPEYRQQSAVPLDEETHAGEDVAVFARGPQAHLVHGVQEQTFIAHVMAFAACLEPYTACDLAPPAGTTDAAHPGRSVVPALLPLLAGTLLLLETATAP
Chain of Trypsin (P00761 whole entry): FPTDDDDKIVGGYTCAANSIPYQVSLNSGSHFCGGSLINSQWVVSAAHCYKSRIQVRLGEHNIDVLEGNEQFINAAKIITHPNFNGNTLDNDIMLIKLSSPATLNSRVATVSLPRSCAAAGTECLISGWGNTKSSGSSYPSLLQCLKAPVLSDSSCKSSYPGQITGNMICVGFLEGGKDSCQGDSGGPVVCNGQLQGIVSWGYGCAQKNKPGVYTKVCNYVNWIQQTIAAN
Chain of Disintegrin and metalloproteinase domain-containing protein 17 (P78536 whole entry, the tested form may be a part): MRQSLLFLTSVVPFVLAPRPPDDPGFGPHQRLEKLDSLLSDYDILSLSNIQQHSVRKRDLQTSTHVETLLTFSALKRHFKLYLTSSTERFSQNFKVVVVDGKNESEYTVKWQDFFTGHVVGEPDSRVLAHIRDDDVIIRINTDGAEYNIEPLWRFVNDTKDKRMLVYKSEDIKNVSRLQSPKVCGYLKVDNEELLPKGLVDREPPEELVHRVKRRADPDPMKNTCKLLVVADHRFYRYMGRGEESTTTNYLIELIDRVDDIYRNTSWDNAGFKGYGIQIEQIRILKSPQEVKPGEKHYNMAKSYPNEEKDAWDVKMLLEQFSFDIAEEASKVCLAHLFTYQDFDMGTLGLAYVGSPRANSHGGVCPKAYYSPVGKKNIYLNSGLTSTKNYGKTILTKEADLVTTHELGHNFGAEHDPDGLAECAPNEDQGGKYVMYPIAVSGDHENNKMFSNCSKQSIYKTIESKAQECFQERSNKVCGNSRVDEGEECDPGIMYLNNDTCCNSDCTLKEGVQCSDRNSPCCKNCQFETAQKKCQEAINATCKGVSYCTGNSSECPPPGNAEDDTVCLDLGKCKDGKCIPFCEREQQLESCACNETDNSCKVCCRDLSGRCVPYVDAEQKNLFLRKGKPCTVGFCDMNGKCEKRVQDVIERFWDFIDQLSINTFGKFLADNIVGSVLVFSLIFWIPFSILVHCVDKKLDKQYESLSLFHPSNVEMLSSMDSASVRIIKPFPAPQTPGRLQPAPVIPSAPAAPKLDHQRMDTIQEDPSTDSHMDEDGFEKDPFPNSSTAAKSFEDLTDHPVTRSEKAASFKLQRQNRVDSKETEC

Which EC50 (Protein RecA) does the source give for `N=c1c2c(ncn1Cc1ccco1)Oc1ccc3ccccc3c1C2c1ccccc1` (stereo not drawn) here?
Its EC50 is 16.7 µM (active).

What about the IC50 [1] of the same molecule?
The IC50 was > 69.5 µM (inactive).

What about the AC50 [2] of the same molecule?
The AC50 was 7.51 µM (active).

And the AC50 [3]?
Its AC50 is 2.09 µM (active).

And the AC50 (CAAX prenyl protease 2)?
The AC50 was 27.2 µM (active).

What about the IC50 [4] of the same molecule?
The IC50 was > 7.72 µM (active).

And the AC50 (Trypsin)?
The AC50 was 7.73 µM (active).

Which IC50 [5] does the source give for `C=CCn1c(SCC(=O)c2ccc(O)c(O)c2)nnc1-c1ccc(C)cc1` here?
The IC50 was > 100 µM (inactive).

And the IC50 [6]?
Its IC50 is 8.57 µM (active).

Which IC50 [7] does the source give for `NCC1CCN(c2nc3ccccc3c3c2CCCC3)CC1` here?
The IC50 was > 150 µM (active).

What about the IC50 (Vero [8]) of the same molecule?
The IC50 was > 25 µM (active).

And the CC50 (Vero [9])?
Its CC50 is 19.2 µM (active).

Which EC50 [10] does the source give for `CCN(CC)c1ccc(/C=N/OCC(=O)Nc2cccc(C)c2)cc1` here?
Its EC50 is > 32 µM (inactive).
